Assay results from patent US20230167088A1, “1-PYRAZINYLPYRAZOLYL-3-OXYALKYL ACIDS AND THEIR DERIVATIVES, AND THEIR USE FOR CONTROL OF UNDESIRED PLANT GROWTH” (BAYER AKTIENGESELLSCHAFT, priority 2020, published 2023).

How the values were obtained:
LOLRI = experiment: Herbicidal pre-emergence action 2a (greenhouse pots, visual scoring); type: in vivo, Lolium rigidum; conditions: dosage 320 g/ha, visual scoring after about 3 weeks vs untreated controls
Procedure, shortened: (§1)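 Pre-emergence soil-surface spray: WP/EC, 0.5% additive, 600 l/ha water, 320 and/or 80 g/ha. Greenhouse ~3 wk. Visual % damage vs untreated (100% = plants dead, 0% = like control).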

PHBPU = experiment: as above; type: in vivo, Pharbitis purpurea; conditions: dosage 320 g/ha, visual scoring after about 3 weeks vs untreated controls
Procedure, shortened: as §1

STEME [1] = experiment: as above; type: in vivo, Stellaria media; conditions: dosage 320 g/ha, visual scoring after about 3 weeks vs untreated controls
Text: (§2) [table] a) Seeds of monocotyledonous and dicotyledonous weed plants and crop plants are placed in plastic or organic plant pots and covered with soil. The compounds of the invention, formulated in the form of wettable powders (WP) or as emulsion concentrates (EC), are then applied onto the surface of the covering soil as aqueous suspension or emulsion with addition of 0.5% additive at a water application rate of 600 1/ha (converted). After the treatment, the pots are placed in a greenhouse and kept under good growth conditions for the trial plants. After about 3 weeks, the effect of the preparations is scored visually in comparison with untreated controls as percentages. For example, 100% activity=the plants have died, 0% activity=like control plants. Tables B1 to B15 below show the effects of selected compounds of the general formula (I) according to Tables 1 and 2 on various harmful plants and an application rate corresponding to 320 g/ha and/or 80 g/ha, which were obtained by the experimental procedure mentioned above.

SETVI = experiment: Herbicidal post-emergence action 1a (greenhouse pots, visual rating); type: in vivo, Setaria viridis; conditions: rated visually about 3 weeks after treatment, 100% = plants have died, 0% = like control plants
Procedure, shortened: (§3)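 Visual scoring versus untreated plants (100% = plants dead, 0% = as control) followed roughly 3 weeks in the greenhouse after treatment. Plants grown in sandy loam pots had been sprayed on green parts at the one-leaf stage, 2–3 weeks post-sowing, with aqueous WP/EC preparations containing 0.5% additive, 600 l/ha, at 320 and/or 80 g/ha.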

ABUTH [2] = experiment: Herbicidal pre-emergence action 2a (greenhouse pots, visual scoring); type: in vivo, Abutilon theophrasti; conditions: dosage 320 g/ha, visual scoring after about 3 weeks vs untreated controls
Procedure, shortened: as §1

HORMU [3] = experiment: Herbicidal post-emergence action 1a (greenhouse pots, visual rating); type: in vivo, Hordeum murinum; conditions: rated visually about 3 weeks after treatment, 100% = plants have died, 0% = like control plants
Experimental: [table] a) Seeds of monocotyledonous and dicotyledonous weeds and crop plants are placed in sandy loam in plastic or organic plant pots, covered with soil and cultivated in a greenhouse under controlled growth conditions. 2 to 3 weeks after sowing, the test plants are treated at the one-leaf stage. The compounds of the invention, formulated in the form of wettable powders (WP) or as emulsion concentrates (EC), are then sprayed onto the green parts of the plants as aqueous suspension or emulsion with addition of 0.5% additive at a water application rate of 600 1/ha (converted). After the test plants have been kept in the greenhouse under optimum growth conditions for about 3 weeks, the activity of the preparations is rated visually in comparison to untreated controls. For example, 100% activity=the plants have died, 0% activity=like control plants. Tables A1 to A15 below show the effects of selected compounds of the general formula (I) according to Tables 1 and 2 on various harmful plants and an application rate corresponding to 320 g/ha and/or 80 g/ha, which were obtained by the experimental procedure mentioned above.

MATIN [4] = experiment: as above; type: in vivo, Matricaria inodora; conditions: visual rating about 3 weeks after treatment
Procedure, shortened: as §3

DIGSA [5] = experiment: Herbicidal pre-emergence action 2a (greenhouse pots, visual scoring); type: in vivo, Digitaria sanguinalis; conditions: dosage 320 g/ha, visual scoring after about 3 weeks
Procedure, shortened: as §1

POLCO = experiment: as above; type: in vivo, Polygonum convolvulus; conditions: dosage 320 g/ha, visual scoring after about 3 weeks vs untreated controls
Procedure, shortened: as §1

HORMU [6] = experiment: as above; type: in vivo, Hordeum murinum; conditions: dosage 320 g/ha, visual scoring after about 3 weeks vs untreated controls
Text: as §2

STEME [7] = experiment: Herbicidal post-emergence action 1a (greenhouse pots, visual rating); type: in vivo, Stellaria media; conditions: rated visually about 3 weeks after treatment, 100% = plants have died, 0% = like control plants
Procedure, shortened: as §3

ECHCG [8] = experiment: Herbicidal pre-emergence action 2b (doubly sown, 1280 g/ha); type: in vivo, Echinochloa crus-galli; conditions: doubly sown pots, dosage 1280 g/ha, visual scoring after about 3 weeks
Procedure, shortened: (§4)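 Visual % scores against untreated plants (0% = like control, 100% = dead) were taken roughly 3 weeks after treatment in the greenhouse. Compounds, as WP or EC with 0.5% additive, were applied in 600 l/ha water onto covering soil over seeds of paired mono-/dicot weeds in sandy loam.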

AMARE = experiment: as above; type: in vivo, Amaranthus retroflexus; conditions: doubly sown pots, dosage 1280 g/ha, visual scoring after about 3 weeks
Procedure, shortened: as §4

MATIN [9] = experiment: Herbicidal post-emergence action 1b (twin sowing, 1280 g/ha); type: in vivo, Matricaria inodora; conditions: dosage 1280 g/ha, visual rating about 3 weeks after treatment
Procedure, shortened: (§5)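 Compounds formulated as WP or EC were applied with 0.5% additive in 600 L/ha water onto one-leaf-stage weeds, each pot sown with one monocot and one dicot species in sandy loam. After roughly 3 weeks in the greenhouse, visual percent activity was scored against untreated plants.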

ABUTH [10] = experiment: as above; type: in vivo, Abutilon theophrasti; conditions: dosage 1280 g/ha, visual rating about 3 weeks after treatment
Procedure, shortened: as §5

ECHCG [11] = experiment: as above; type: in vivo, Echinochloa crus-galli; conditions: dosage 1280 g/ha, visual rating about 3 weeks after treatment
Procedure, shortened: as §5

DIGSA [12] = experiment: Herbicidal pre-emergence action 2b (doubly sown, 1280 g/ha); type: in vivo, Digitaria sanguinalis; conditions: doubly sown pots, dosage 1280 g/ha, visual scoring after about 3 weeks
Procedure, shortened: as §4

DIGSA [13] = experiment: Herbicidal post-emergence action 1b (twin sowing, 1280 g/ha); type: in vivo, Digitaria sanguinalis; conditions: dosage 1280 g/ha, visual rating about 3 weeks after treatment
Procedure, shortened: as §5

| Structure (SMILES) | Pre-emergence action against LOLRI in % (LOLRI) [%] | Pre-emergence action against PHBPU in % (PHBPU) [%] | Pre-emergence action against STEME in % (STEME [1]) [%] | Post-emergence action against SETVI in % (SETVI; Dosage 80 g/ha) [%] | Post-emergence action against SETVI in % (SETVI; Dosage 320 g/ha) [%] | Pre-emergence action against ABUTH in % (ABUTH [2]) [%] | Post-emergence action against HORMU in % (HORMU [3]; Dosage 80 g/ha) [%] | Post-emergence action against HORMU in % (HORMU [3]; Dosage 320 g/ha) [%] | Post-emergence action against MATIN in % (MATIN [4]; dosage 80 g/ha) [%] | Post-emergence action against MATIN in % (MATIN [4]; dosage 320 g/ha) [%] | Pre-emergence action against DIGSA in % (DIGSA [5]) [%] | Pre-emergence action against POLCO in % (POLCO) [%] | Pre-emergence action against HORMU in % (HORMU [6]) [%] | Post-emergence action against STEME in % (STEME [7]; Dosage 80 g/ha) [%] | Post-emergence action against STEME in % (STEME [7]; Dosage 320 g/ha) [%] | Pre-emergence action at 1280 g/ha against ECHCG in % (ECHCG [8]) [%] | Pre-emergence action at 1280 g/ha against AMARE in % (AMARE) [%] | Post-emergence action at 1280 g/ha against MATIN in % (MATIN [9]) [%] | Post-emergence action at 1280 g/ha against ABUTH in % (ABUTH [10]) [%] | Post-emergence action at 1280 g/ha against ECHCG in % (ECHCG [11]) [%] | other results |
| --- | --- | --- | --- | --- | --- | --- | --- | --- | --- | --- | --- | --- | --- | --- | --- | --- | --- | --- | --- | --- | --- |
| COC(=O)C(C)Oc1nn(-c2cnccn2)c(-c2cncc(F)c2)c1Br (racemic) [Example I-08] | 100 | 90 | 100 | 80 | 80 | 80 | 80 | 90 | 80 | 90 | 100 | 100 | 100 | 90 | 90 | – | – | – | – | – | – |
| CCOC(=O)COc1nn(-c2cnccn2)c(-c2ccccc2)c1Br [Example I-01] | 80 | – | 80 | – | – | – | – | – | 80 | 90 | 90 | 80 | – | – | 90 | 100 | 100 | 90 | – | – | – |
| COC(=O)C(C)Oc1nn(-c2cnccn2)c(-c2ccnc(F)c2)c1Cl (racemic) [Example I-05] | 100 | 80 | 100 | – | 80 | – | – | 90 | – | – | 100 | – | 90 | – | 80 | 100 | 100 | – | 90 | – | – |
| C[C@@H](Oc1nn(-c2cnccn2)c(-c2cccc(F)c2)c1Br)C(=O)O [Example I-48] | 100 | 90 | – | 80 | – | 100 | – | – | – | – | 100 | 100 | – | – | – | 100 | 100 | 100 | 90 | 100 | Pre-emergence action at 1280 g/ha against DIGSA in % (DIGSA [12]): 100% |
| COC(=O)[C@@H](C)Oc1nn(-c2cnccn2)c(-c2ccc(F)c(F)c2)c1C#N [Example I-46] | 100 | – | – | – | – | 80 | – | – | – | 80 | 100 | 100 | – | – | – | 100 | 100 | 90 | 90 | 100 | Post-emergence action at 1280 g/ha against DIGSA in % (DIGSA [13]): 100%; Pre-emergence action at 1280 g/ha against DIGSA in % (DIGSA [12]): 100% |
| COC(=O)COc1nn(-c2cnccn2)c(-c2cncc(F)c2)c1Br [Example I-07] | 100 | 90 | 100 | 80 | 80 | – | 80 | 90 | 90 | 90 | 100 | 90 | 90 | 90 | 90 | – | – | – | – | – | – |
| COC(=O)C(C)Oc1nn(-c2cnccn2)c(-c2ccc(F)nc2)c1Br (racemic) [Example I-12] | 100 | – | 90 | – | 80 | – | 90 | 90 | – | 80 | 100 | 90 | 90 | 80 | 90 | 100 | 100 | 90 | – | 90 | – |
| COC(=O)C(C)Oc1nn(-c2cnccn2)c(-c2ccnc(F)c2)c1Br (racemic) [Example I-10] | 100 | – | – | – | 80 | – | 80 | 80 | – | – | 100 | – | 80 | – | 90 | – | 100 | – | – | – | – |
